Test [1] deals with T1, YTHDF1 (361-559) (Homo sapiens, UniProt Q9BYJ9).
T1 construct: GST (N, cleaved yes); made in house; host or cells: E. coli BL21 (DE3)
T1 sequence (Q9BYJ9 with tags, fused parts or gaps): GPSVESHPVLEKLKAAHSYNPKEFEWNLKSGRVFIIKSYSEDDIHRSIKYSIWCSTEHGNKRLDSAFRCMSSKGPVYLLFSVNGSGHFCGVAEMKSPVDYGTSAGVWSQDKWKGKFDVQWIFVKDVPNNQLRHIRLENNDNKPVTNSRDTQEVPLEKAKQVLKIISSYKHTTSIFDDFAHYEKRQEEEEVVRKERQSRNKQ
In words: Hydrogen deuterium exchange mass spectrometry (HDX MS). The class given is binding. Conditions: HDX 10 s to 14400 s; many peptides HDX variation over 5%. The method, then: YTHDF1 (361-559) was incubated with the compound (e.g., SAA) at 4° C. overnight before the measurement. In hydrogen deuterium exchange mass spectrometry (HDX MS), the hydrogen atoms of YTHDF1 (361-559)-apo and YTHDF1 (361-559)-SAA were exchanged with deuterium for 0 s, 10 s, 30 s, 60 s, 1200 s, 3600 s and 14400 s respectively at 10° C. in buffer containing 20 mM Hepes (pH 7.4), 200 mM NaCl and D2O. And the reactions were stopped at 0.5° C. using buffer containing 4 M guanidine hydrochloride, 0.5 M TCEP and 100 mM citric acid (pH 2.3). After deuterium label reaction, the samples were digested at 4° C. by pepsin immobilized on the column in order to obtain peptides of the samples. These peptides were next separated by HPLC and analyzed via mass spectrometry, respectively. HDX MS data was analyzed in HDExaminer software (v2.4.1) and +5% were set as the threshold to pick out those peptides with significant change.
Then, hydrogen deuterium exchange mass spectrometry (HDX MS) experiment was conducted, to determine the binding sites of SAA on YTHDF1.

Test [2] relates to classical DCs in draining lymph node. Kind of test: Ex vivo direct-priming by DCs sorted from draining lymph node of treated mice with OT-I peptide. It counts as in vivo, mouse. Conditions: four DC subtypes from SAA treated mice, 1 μg/mL OT-I peptide. The method, then: For in vitro cross-presentation study, mature FLT3L-DCs were harvested on day 9 and purified by EasySep Mouse CD11 c Positive Selection Kit II, then treated with 10 μM SAA or DMSO in IMDM medium (contain 10% bovine and 100 ng/mL FLT3L) for 10 h. […] Then antigen-obtained DCs were purified and co-cultured with naïve T cells from OT-1 mice at a ratio of 1:10 for 96 h. The co-culture medium was 1640 RPMI contains 10% fetal bovine with or without 1 μg/mL OT-1 (OVA 257-264) peptide. For ex vivo DCs cross-presentation assay, four types of DCs (migration CD11b DC, migration CD103′ DC, resident CD11b DC and resident CD8^+ DC) were sorted in draining lymph node from SAA treated B16-OVA bearing mice at day 12. These DCs were co-cultured with OT-1 naïve T cells in the ratio of 1:10 for 96 hours with or without OT-1 peptide. Supernatant IFN-γ production was detected via CBA assay.
Dendritic cells can activate T cells through cross-priming and/or direct-priming. In direct-priming process, DCs could stimulate T cells via surface co-stimulatory molecules such as CD80/CD86 or cytokines related with T cell activation. […] IFN-γ production was assessed by IFN-γ cytometric bead array. […] Then, IFN-γ production was assessed by IFN-γ cytometric bead array.

For test [3], the system named is OT-I T cells. In words: CFSE-labeled OT-I T cell proliferation in vitro. The class given is cell-based, mouse. Conditions: 5×10^5 CFSE-labeled OT-I T cells, various doses, 1 μg/mL OT-I peptide 24 hours. As to the method:
1×10^7 lymphocytes form lymph nodes of naïve OT-I mice were washed with PBS twice, then resuspend in 1 mL PBS. 1 μL CFSE Tracker was added into suspension and incubated in 37° C. for 5 min. Then 5 mL RPMI-1640 medium with 10% FBS was added to stop CFSE labelling, incubated at room temperature for 5 min. After centrifugation, CFSE-labeled T cells were suspended with another 5 mL RPMI-1640 medium at least for 10 min in room temperature.
In a further experiment, 5×10^5 CFSE-labeled OT-I T cells were treated with SAA of various doses in 96-well plates, then the cells were stimulated with 1 μg/mL OT-I peptide for 24 hours. Divided T cells were analyzed by FACS.

In test [4] the test system is B16-OVA melanoma. Kind of test: B16-OVA tumor growth in wild-type mice. The class given is in vivo, mouse.
Test [5] addresses T1, YTHDF1 (361-559). In words: NMR CPMG binding experiment. Conditions: 200 μM SAA; 5 μM, 10 μM and 20 μM YTHDF1. The method, then:
NMR CPMG experiment was performed at 25° C. using Bruker Avance III spectrometer (600 MHz proton frequency) with a cryogenically cooled probe (Bruker biospin, Germany). YTHDF1 (361-559) was diluted to 20 μM, 10 μM and 5 μM in phosphate buffer (20 mM NaH2PO4, 20 mM Na2HPO4, 150 mM NaCl, pH 7.4, D2O). […] The solvent-suppressed 1D ^1H CPMG was obtained via the pulse sequence (RD-90°-(τ-180°-τ) n-ACQ). In the pre-saturation procedure, a 54.78 dB pulse in 4 s duration of the recycle delay (RD) was applied to eliminate water resonance. Then, the 900 pulse length was modulated to 11.82 μs approximately. And at last, a total of 4 dummy scans and 64 free induction decays (FIDs) were collected into […] acquisition points, covering a spectral width of 12 kHz (20 ppm) with the acquisition time (ACQ) of 2.73 s.
Then, qualitative and quantitative experiments were performed to explore the binding between SAA and YTHDF1. Firstly, nuclear magnetic resonance (NMR) Carr-Purcell-Meiboom-Gill (CPMG) experiments were conducted.

As for `O=C(/C=C/c1ccc(O)c(O)c1/C=C/c1ccc(O)c(O)c1)O[C@H](Cc1ccc(O)c(O)c1)C(=O)O` [SAA, Salvianolic Acid A], the “conformational change of YTHDF1 on binding (deuterium uptake)” value in test [1] was “significant conformational changes”. In addition, in test [2], the “direct-priming capacity of DC subtypes (IFN-γ production)” value is on record as 3 of the 4 DC subtypes showed improved direct-priming capacity. Besides, the T cell proliferation result in test [3] is “could not influence T cell proliferation”. For the same compound, in test [4] (5×10^5 B16-OVA in C57BL/6 mice, 10 μM i.v. 9 days after implantation (FIG. 19)), the “tumor growth versus DMSO” value is recorded as “tumor growth was much slower”. Besides, the “tumor growth versus control” value in test [4] (5×10^5 B16-OVA s.c., 10 μM SAA on day 9 and 11) is reported as “tumor growth was much slower”. In addition, the “CPMG signal of the compound on addition of YTHDF1” value in test [5] is “signal decreased”.

The record behind these values is patent US20240033244A1, “COMPOSITIONS AND METHODS FOR INHIBITING YTHDF1” (SHANGHAI INSTITUTE OF MATERIA MEDICA, CHINESE ACADEMY OF …, priority 2020, published 2024).
